# Key:
# [1] = tested on: H9 (acute lymphoblastic leukemia, ALL); assay: MTT cell growth inhibition, H9 leukemia cells, 72 h; format: cell-based; conditions: H9, 72 h; for IC50: read-out: IC50; for IC90: read-out: IC90
# Description: (§1) The standard sample of tanshinone I (TA) and the 2-alkyl- or 2-aromatic-substituted tanshinone I derivatives of the present invention are sufficiently dissolved in dimethylsulfoxide to produce a stock solution of 10 mg/mL, which is refrigerated at 4° C. and stored in dark, and is diluted with cell culture medium to a desired concentration prior to experimentation.
# (§2) Obtaining 6000 well-growing leukemia cells and inoculating them into wells of a 96-well cell culture plate. The culture medium is the RPMI-1640 cell culture medium containing 10% fetal bovine serum. After adding on the second day the 2-alkyl- or 2-aromatic-substituted tanshinone I derivatives of different concentrations and mixing uniformly, placing the plate in a carbon dioxide cell incubator (5% CO2) at 37° C. and incubated for 72 hours. Then the viable cell concentration is determined by MTT method. In this experiment, the cell viability in control group (not treated with any compound) is set as 100%, and the cell viability (%) after treatment by the compounds and the half maximum inhibitory concentration for the leukemia cell at 72 hours (IC50 value of 72 hours, μg/mL) are calculated.
# [2] = tested on: Hela (human cervical cancer cell); assay: MTT cell growth inhibition, Hela cells, 72 h; format: cell-based; conditions: Homo sapiens, HeLa, 72 h; for IC50: read-out: IC50; for IC90: read-out: IC90
# Description: (§3) The standard sample of tanshinone I (TA) and the 2-alkyl- or 2-aromatic-substituted tanshinone I derivatives of the present invention are sufficiently dissolved in dimethylsulfoxide to produce a stock solution of 10 mg/mL, which is refrigerated at 4° C. and stored in dark, and is diluted with a cell culture medium to the desired concentration prior to experimentation.
# (§4) Obtaining 6000 well-growing human solid tumor cells and inoculating them into wells of a 96-well cell culture plate. The culture medium is DMEM High Glucose cell culture medium containing 10% fetal bovine serum. The plate is placed in a carbon dioxide cell incubator (5% CO2) at 37° C. and incubated for 24 hours. After adding the 2-alkyl- or 2-aromatic-substituted tanshinone I derivatives of different concentrations and mixing uniformly, the plate is placed in a carbon dioxide cell incubator (5% CO2) at 37° C. and incubated for 72 hours. Then the viable cell concentration is determined by MTT method. In this experiment, the cell viability in control group (not treated with any compound) is set as 100%, and the cell viability (%) after treatment by the compounds and the half maximum inhibitory concentration for the leukemia cell at 72 hours (IC50 value of 72 hours, μg/mL) are calculated.
# [3] = tested on: Hep G2 (human liver cancer cell); assay: MTT cell growth inhibition, Hep G2 cells, 72 h; format: cell-based; conditions: Homo sapiens, HepG2, Hep G2, 72 h; for IC50: read-out: IC50; for IC90: read-out: IC90
# Description: as §3, §4
# [4] = tested on: RPMI8226 (multiple myeloma); assay: MTT cell growth inhibition, RPMI8226 multiple myeloma cells, 72 h; format: cell-based, human; conditions: Homo sapiens, RPMI 8226, 72 h; for IC50: read-out: IC50; for IC90: read-out: IC90
# Description: as §1, §2
# [5] = tested on: MG63 (osteosarcoma); assay: MTT cell growth inhibition, MG63 cells, 72 h; format: cell-based, human; conditions: Homo sapiens, MG-63, 72 h; for IC50: read-out: IC50; for IC90: read-out: IC90
# Description: as §3, §4
# [6] = tested on: Hep-2 (laryngeal carcinoma); assay: MTT cell growth inhibition, Hep-2 cells, 72 h; format: cell-based, human; conditions: Homo sapiens, HEp-2, 72 h; for IC50: read-out: IC50; for IC90: read-out: IC90
# Description: as §3, §4
# [7] = tested on: Jurkat (acute lymphoblastic leukemia, ALL); assay: MTT cell growth inhibition, Jurkat leukemia cells, 72 h; format: cell-based; conditions: Homo sapiens, 72 h; for IC50: read-out: IC50; for IC90: read-out: IC90
# Description: as §1, §2
# [8] = tested on: A549 (human lung cancer); assay: MTT cell growth inhibition, A549 cells, 72 h; format: cell-based; conditions: Homo sapiens, A549, 72 h; for IC50: read-out: IC50; for IC90: read-out: IC90
# Description: as §3, §4
# [9] = tested on: CNE (nasopharyngeal carcinoma cell); assay: MTT cell growth inhibition, CNE cells, 72 h; format: cell-based, human; conditions: for IC50 / IC90: Homo sapiens, CNE, 72 h; for IC50: read-out: IC50; for IC90: read-out: IC90
# Description: as §3, §4
# [10] = tested on: Becap37 (human breast cancer cell); assay: MTT cell growth inhibition, Becap37 cells, 72 h; format: cell-based; conditions: Homo sapiens, Becap-37, 72 h; for IC50: read-out: IC50; for IC90: read-out: IC90
# Description: as §3, §4
# [11] = tested on: CaES-17 (esophageal cancer cell); assay: MTT cell growth inhibition, CaES-17 cells, 72 h; format: cell-based, human; conditions: Homo sapiens, CaEs17, CaEs-17, 72 h; for IC50: read-out: IC50; for IC90: read-out: IC90
# Description: as §3, §4
# [12] = tested on: MGC 803 (human gastric cancer cell); assay: MTT cell growth inhibition, MGC 803 cells, 72 h; format: cell-based; conditions: Homo sapiens, MGC-803, 72 h; for IC50: read-out: IC50; for IC90: read-out: IC90
# Description: as §3, §4
# [13] = tested on: K562/adr (drug-resistant, chronic myeloid leukemia, CML); assay: MTT cell growth inhibition, K562/adr leukemia cells, 72 h; format: cell-based; conditions: Homo sapiens, K562/Adr; for IC50: read-out: IC50; for IC90: read-out: IC90
# Description: as §1, §2
# [14] = tested on: SK-OV-3 (ovarian cancer cell); assay: MTT cell growth inhibition, SK-OV-3 cells, 72 h; format: cell-based, human; conditions: Homo sapiens, SK-OV-3, 72 h; for IC50: read-out: IC50; for IC90: read-out: IC90
# Description: as §3, §4
# [15] = tested on: PANC-1 (pancreatic cancer); assay: MTT cell growth inhibition, PANC-1 cells, 72 h; format: cell-based, human; conditions: Homo sapiens, PANC-1, 72 h; for IC50: read-out: IC50; for IC90: read-out: IC90
# Description: as §3, §4
# [16] = tested on: NB4 (acute promyelocytic leukemia, AML); assay: MTT cell growth inhibition, NB4 leukemia cells, 72 h; format: cell-based; conditions: NB4, 72 h; for IC50: read-out: IC50; for IC90: read-out: IC90
# Description: as §1, §2
# [17] = tested on: U87 MG (malignant glioma cell); assay: MTT cell growth inhibition, U87 MG cells, 72 h; format: cell-based, human; conditions: for IC50 / IC90: Homo sapiens, U-87 MG, U87-MG, 72 h; for IC50: read-out: IC50; for IC90: read-out: IC90
# Description: as §3, §4
# [18] = tested on: Kasumi-1 (acute myeloid leukemia M2 type, AML-M2); assay: MTT cell growth inhibition, Kasumi-1 leukemia cells, 72 h; format: cell-based; conditions: Homo sapiens, Kasumi-1, 72 h; for IC50: read-out: IC50; for IC90: read-out: IC90
# Description: as §1, §2
# [19] = tested on: PC-3 (prostate cancer); assay: MTT cell growth inhibition, PC-3 cells, 72 h; format: cell-based, human; conditions: for IC50 / IC90: Homo sapiens, PC-3, 72 h; for IC50: read-out: IC50; for IC90: read-out: IC90
# Description: as §3, §4
# [20] = tested on: RKO (human colon adenocarcinoma cell); assay: MTT cell growth inhibition, RKO cells, 72 h; format: cell-based; conditions: for IC50 / IC90: Homo sapiens, RKO, 72 h; for IC50: read-out: IC50; for IC90: read-out: IC90
# Description: as §3, §4
smiles,measurement,setting,value
Cc1oc2c(c1C)C(=O)C(=O)c1c-2ccc2c(C)cccc12 [BS-TA-03],IC50,[1],6.4 mg/L
same,IC90,[1],> 16 mg/L
same,IC50,[2],4 mg/L
same,IC90,[2],> 16 mg/L
same,IC50,[3],5.48 mg/L
same,IC90,[3],> 16 mg/L
same,IC50,[4],2 mg/L
same,IC90,[4],16.5 mg/L
same,IC50,[5],3.18 mg/L
same,IC90,[5],> 16 mg/L
same,IC50,[6],9.17 mg/L
same,IC90,[6],> 16 mg/L
same,IC50,[7],1.88 mg/L
same,IC90,[7],6.97 mg/L
same,IC50,[8],6.45 mg/L
same,IC90,[8],> 16 mg/L
same,IC50,[9],3.9 mg/L
same,IC90,[9],97 mg/L
same,anti-CNE activity (in words),[9]; Table 2,good activity
same,IC50,[10],3.96 mg/L
same,IC90,[10],> 16 mg/L
same,IC50,[11],5.19 mg/L
same,IC90,[11],20.4 mg/L
same,IC50,[12],4.65 mg/L
same,IC90,[12],18.4 mg/L
same,IC50,[13],8.84 mg/L
same,IC90,[13],28.7 mg/L
same,IC50,[14],> 16 mg/L
same,IC90,[14],> 16 mg/L
same,IC50,[15],3.46 mg/L
same,IC90,[15],> 16 mg/L
same,IC50,[16],1.13 mg/L
same,IC90,[16],3.64 mg/L
same,IC50,[17],6.63 mg/L
same,IC90,[17],16.8 mg/L
same,IC50,[18],9.66 mg/L
same,IC90,[18],30.3 mg/L
same,IC50,[19],4.99 mg/L
same,IC90,[19],17.5 mg/L
same,anti-PC-3 activity (in words),[19]; Table 2,good activity
same,IC50,[20],1.35 mg/L
same,IC90,[20],> 16 mg/L
same,anti-RKO activity (in words),[20]; Table 2,good activity
Cc1c(-c2ccccc2Cl)oc2c1C(=O)C(=O)c1c-2ccc2c(C)cccc12 [BS-TA-04],IC50,[1],6.7 mg/L
same,IC90,[1],> 16 mg/L
same,IC50,[2],5.5 mg/L
same,IC90,[2],22.2 mg/L
same,IC50,[3],14.5 mg/L
same,IC90,[3],> 16 mg/L
same,IC50,[4],4 mg/L
same,IC90,[4],16.1 mg/L
same,IC50,[5],10.3 mg/L
same,IC90,[5],> 16 mg/L
same,IC50,[6],11.6 mg/L
same,IC90,[6],> 16 mg/L
same,IC50,[7],4.83 mg/L
same,IC90,[7],9.72 mg/L
same,IC50,[8],6.92 mg/L
same,IC90,[8],> 16 mg/L
same,IC50,[9],10.5 mg/L
same,IC90,[9],> 16 mg/L
same,IC50,[10],9.34 mg/L
same,IC90,[10],> 16 mg/L
same,IC50,[11],11 mg/L
same,IC90,[11],28.8 mg/L
same,IC50,[12],8.88 mg/L
same,IC90,[12],23.9 mg/L
same,IC50,[13],15.5 mg/L
same,IC90,[13],> 16 mg/L
same,IC50,[14],> 16 mg/L
same,IC90,[14],> 16 mg/L
same,IC50,[15],9.8 mg/L
same,IC90,[15],> 16 mg/L
same,IC50,[16],4.09 mg/L
same,IC90,[16],11.2 mg/L
same,IC50,[17],5.73 mg/L
same,IC90,[17],19.2 mg/L
same,anti-U87 MG activity (in words),[17]; Table 2,superior to that of tanshinone I per se
same,IC50,[18],> 16 mg/L
same,IC90,[18],> 16 mg/L
same,IC50,[19],> 16 mg/L
same,IC90,[19],> 16 mg/L
same,IC50,[20],5.01 mg/L
same,IC90,[20],> 16 mg/L
